Laboratory results taken from US12178821B2, “Combination therapies for the treatment of cancer” (Curis, Inc., priority 2021, dated 2024).
“Also recorded” adds a separate entry of the source. Where two headings read alike, the source gives them in different places. Blank lines part the entries; values can stand above or below the molecule they belong to.

Assays:
F-36P = assay: CellTiter Glo cell viability assay, GI50, 72 hrs; format: cell-based
Method: (§1) CellTiter Glo cell viability assay was used to evaluate the antitumor effects of Compound 1 in combination with AML SOC drugs daunorubicin, Ara-C, decitabine, azacitidine and venetoclax in FLT3-WT AML cell lines THP-1, F-36P, OCl-AML2 and GDM-1. GI50 (the concentration for 50% of maximal inhibition of cell proliferation) was determined for each drug in AML cell lines.
(§2) Cells were treated for 72 hrs. Relative cell viability was measured by CellTiter Glo assay (Promega, Madison, WI) at 0 and at 72 hrs. GI50 was calculated using GraphPad Prism 8.0 software.

GDM-1 = assay: CellTiter Glo cell viability assay, GI50, 72 hrs; format: cell-based
Method: as §1, §2

OC1-AML2 = assay: CellTiter Glo cell viability assay, GI50, 72 hrs; format: cell-based
Method: as §1, §2

THP-1 = assay: CellTiter Glo cell viability assay, GI50, 72 hrs; format: cell-based
Method: as §1, §2

[1] = concentration used in the combination experiments; cited from earlier work
[2] = system: FLT3-WT AML cell lines THP-1, F-36P, OCl-AML2 and GDM-1; assay: CellTiter Glo combination experiments summarised over the cell line panel; format: cell-based; details: 4 FLT3-WT AML cell lines, 96 hrs, clinically relevant drug concentration
Method: as §1, with “lines. Either GI50 (below peak plasma concentration) or peak plasma concentration (if GI50 was higher than peak plasma concentration) of each drug was used as clinically relevant concentration for combination experiments.” for “lines.”
Cells were treated continuously with clinically relevant drug concentration for 96 hrs. Relative cell viability was measured by CellTiter Glo assay (Promega, Madison, WI) at 0 and at 96 hrs according to manufacturer's instructions. All values are presented as mean±SE. Cell viability assay data were analyzed with one-way ANOVA. P values less than 0.05 were considered significant. Statistical analysis was performed using GraphPad Prism 8.0 software. + Less than 50% growth inhibition, p<0.05; ++ 50-100% growth inhibition, p<0.05; +++ Induction of cell death (cytotoxic effect), p<0.05; NS, not significant; ND, not defined. *Venetoclax resistant cell line, **Azacitidine/Decitabine resistant cell line. Clinically relevant conc (peak plasma conc): Compound 1-10 μM; Venetoclax—1 μM; and Azacitidine—4 μM.

[3] = F-36P cells, treated for 72 hrs, CellTiter Glo, read-out: GI50
[4] = Homo sapiens, GDM-1 cells, treated for 72 hrs, CellTiter Glo, read-out: GI50
[5] = OC1-AML2 cells, treated for 72 hrs, CellTiter Glo, read-out: GI50
[6] = Homo sapiens, THP-1 cells, treated for 72 hrs, CellTiter Glo, read-out: GI50

GI50 (THP-1; [6]): 3000 nM
Compound: Nc1ncn([C@@H]2O[C@H](CO)[C@@H](O)[C@H]2O)c(=O)n1 [Azacitidine]
GI50 (F-36P; [3]): 4000 nM | GI50 (GDM-1; [4]): 2000 nM | GI50 (OC1-AML2; [5]): 30000 nM | resistance of the cell line to the treatment (OC1-AML2; OCl-AML2): resistant | Clinically relevant conc (peak plasma conc) [1]: 4 µM

GI50 (THP-1; THP-1 cells, treated for 72 hrs, CellTiter Glo, read-out: GI50): 150 nM
Compound: Nc1ccn([C@@H]2O[C@H](CO)[C@@H](O)[C@@H]2O)c(=O)n1 [Ara-C]
GI50 (F-36P; [3]): 150 nM | GI50 (GDM-1; GDM-1 cells, treated for 72 hrs, CellTiter Glo, read-out: GI50): 5 nM | GI50 (OC1-AML2; [5]): 4000 nM

GI50 (THP-1; [6]): > 20000 nM
Compound: Cc1cc(-c2nc(C(=O)Nc3cc4oc(N5CCOCC5)nc4nc3N3CC[C@@H](O)C3)co2)ccn1 [Compound 1]
GI50 (F-36P; [3]): > 20000 nM | GI50 (GDM-1; [4]): > 20000 nM | GI50 (OC1-AML2; [5]): 13000 nM | antitumor effect of the combination over the cell line panel, in words [2]: potentiated antitumor effects of azacitidine in 3 of 4 FLT3-WT AML cell lines; also recorded: significantly potentiated antitumor effects of azacitidine+venetoclax in all AML FLT3-WT cell lines | Clinically relevant conc (peak plasma conc) [1]: 10 µM

More lines, now with the values behind:

Compound: COc1cccc2c1C(=O)c1c(O)c3c(c(O)c1C2=O)C[C@@](O)(C(C)=O)C[C@@H]3O[C@H]1C[C@H](N)[C@H](O)[C@H](C)O1 [Daunorubicin]
GI50 (F-36P; 72 h): 100 nM | GI50 (GDM-1; Homo sapiens, GDM-1, 72 h): 10 nM | GI50 (OC1-AML2; 72 h): 5 nM | GI50 (THP-1; Homo sapiens, THP-1, 72 h): 5 nM

Compound: CC1(C)CCC(CN2CCN(c3ccc(C(=O)NS(=O)(=O)c4ccc(NCC5CCOCC5)c([N+](=O)[O-])c4)c(Oc4cnc5[nH]ccc5c4)c3)CC2)=C(c2ccc(Cl)cc2)C1 [Venetoclax]
GI50 (F-36P; [3]): 18000 nM | GI50 (GDM-1; [4]): 5 nM | GI50 (OC1-AML2; [5]): 2 nM | GI50 (THP-1; [6]): 18000 nM | Clinically relevant conc (peak plasma conc) [1]: 1 µM

Compound: Nc1ncn([C@H]2C[C@H](O)[C@@H](CO)O2)c(=O)n1 [Decitabine]
GI50 (F-36P; 72 h): 200 nM | GI50 (GDM-1; Homo sapiens, GDM-1, 72 h): 80 nM | GI50 (OC1-AML2; 72 h): 18000 nM | GI50 (THP-1; Homo sapiens, THP-1, 72 h): 150 nM
